Experimental data reported in article PMC9007350, “Aurintricarboxylic acid is a canonical disruptor of the TAZ-TEAD transcriptional complex” (PLoS ONE, 2022).

Biological target: T1, TAZ-TEAD complex (human TAZ (23-57) probe, human TEAD4 (217-434)) (Homo sapiens, UniProt Q15561)
T1 construct: made in house
Test: TAZ-TEAD fluorescence polarization assay
Assay type: binding
Conditions: comparison with ATA, S2 Fig
Protocol: Human YAP (61–100), human TAZ (23–57) and mouse Vgll1 (26–51) peptide probes were used; all the probes had carboxyfluorescein labels. Human TEAD4 (217–434) was used in the assay at a concentration of 350 nM and the peptide probe concentration was 25 nM. Disruptors were titrated at concentrations ranging from 0–150 μM to the probe-TEAD complex, and the mixtures were incubated at 25°C for 20 min. Then, polarization measurements were taken using a Victor3 (PerkinElmer) plate reader.

T1 sequence (Q15561 217-434, one chain of several): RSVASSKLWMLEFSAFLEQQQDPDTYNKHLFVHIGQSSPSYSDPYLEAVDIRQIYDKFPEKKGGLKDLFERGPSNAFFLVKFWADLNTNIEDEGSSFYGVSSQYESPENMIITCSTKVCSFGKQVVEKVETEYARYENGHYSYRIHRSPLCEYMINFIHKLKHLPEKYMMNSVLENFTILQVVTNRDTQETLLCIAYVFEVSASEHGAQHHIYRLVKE

## verteporfin
  effect in the TAZ-TEAD FP assay (in words): did not display an effect
